What all share (assay type): functional, cell-based
Assay [1] relates to MCF7. Put plainly: Cytotoxicity against human MCF7 cells assessed as reduction in cell viability incubated for 48 hrs by MTT assay. Particulars: MCF7, 48 h. (Formazan colour is commonly taken as a measure of viable cells.)
For assay [2], the system named is HeLa. Put plainly: Cytotoxicity against human HeLa cells assessed as reduction in cell viability incubated for 48 hrs by MTT assay.
The next assay relates to L1210. Put plainly: Cytotoxicity against mouse L1210 cells assessed as reduction in cell viability after 48 hrs by MTT assay. Particulars: L1210, 48 h.
The test system of a further assay is HT-29. Put plainly: Cytotoxicity against human HT-29 cells assessed as reduction in cell viability after 48 hrs by MTT assay. As to conditions: HT-29, 48 h.
In the next assay the test system is P388. Put plainly: Cytotoxicity against mouse P388 cells assessed as reduction in cell viability after 48 hrs by MTT assay. Particulars: P388, 48 h.
The subject of assay [3] is A549. Put plainly: Cytotoxicity against human A549 cells assessed as reduction in cell viability after 48 hrs by MTT assay. Particulars: A549, 48 h.
In assay [4] the test system is A549. Put plainly: Cytotoxicity against human A549 cells by SRB assay. (Sulforhodamine B stains cellular protein and so reports cell mass.)
Another assay relates to SK-OV-3. Put plainly: Cytotoxicity against human SKOV3 cells by SRB assay.
A further assay relates to HCT-15. Put plainly: Cytotoxicity against human HCT15 cells by SRB assay.
The test system of the next assay is XF498. Put plainly: Cytotoxicity against human XF498 cells by SRB assay.
The test system of another assay is SK-MEL-2. Put plainly: Cytotoxicity against human SK-MEL-2 cells by SRB assay.
For assay [5], the system named is HeLa. Put plainly: Cytotoxicity against human HeLa cells after 48 hrs by MTT assay.
The subject of assay [6] is A549. Put plainly: Cytotoxicity against human A549 cells after 48 hrs by MTT assay. As to conditions: A549, 48 h.
A further assay deals with U-937. Put plainly: Cytotoxicity against human U937 cells after 48 hrs by MTT assay. As to conditions: U-937, 48 h.
For another assay, the system named is A2780. Put plainly: Cytotoxicity against human A2780 cells after 72 hrs by MTT assay. Particulars: A2780, 72 h.
A further assay concerns A-431. Put plainly: Cytotoxicity against human A431 cells after 72 hrs by MTT assay. Particulars: A-431, 72 h.
A further assay relates to Bel-7402. Put plainly: Cytotoxicity against human Bel7402 cells by MTT assay.
For assay [7], the system named is MCF7. Put plainly: Cytotoxicity against human MCF7 cells after 72 hrs by MTT assay. As to conditions: MCF7, 72 h.
Assay [8] relates to A549. Put plainly: Cytotoxicity against human A549 cells by MTT assay.
The test system of assay [9] is HeLa. Put plainly: Cytotoxicity against human HeLa cells after 72 hrs by MTT assay.
In another assay the test system is HepG2. Put plainly: Cytotoxicity against human HepG2 cells after 72 hrs by MTT assay. Particulars: HepG2, 72 h.
The next assay has as its system SH-SY5Y. Put plainly: Cytotoxicity against human SH-SY5Y cells after 72 hrs by MTT assay.
Assay [10] is described as follows: Cytotoxicity against mouse S17 cells after 72 hrs by MTT assay. Particulars: S17, 72 h.
Another assay concerns HL-60. Put plainly: Antiproliferative activity against human HL60 cells assessed as reduction in cell viability after 3 days by XTT assay. As to conditions: HL-60, 72 h.
The nature of assay [11]: Cytotoxicity against human YD-10B cells assessed as reduction in cell viability after 48 hr by MTT asssay.

As a reminder, the IC50 is the concentration at which inhibition is half-maximal.

In brackets after ≈: the same amount, converted by molar mass.

Turning to `COc1cc(-c2oc3cc(O)cc(O)c3c(=O)c2OC)cc(O)c1OC`, the figures for the IC50 in the assay on MCF7 [1] and in the assay on HeLa [2] were 10.3 to 91.9 µM and 8.1 to 63.2 µM, respectively.
In the same order, the values of `COc1ccc(-c2cc(=O)c3c(O)c(OC)c(OC)cc3o2)cc1OC` are 10.3 to 91.9 µM and 8.1 to 63.2 µM.
For `C[C@H]1[C@@H](O[C@H](C#N)c2ccc(Br)cc2)O[C@@H]2O[C@@]3(C)CC[C@H]4[C@H](C)CC[C@@H]1[C@@]24OO3`, the IC50 with L1210, with HT-29, with P388 and in the assay on A549 [3] was 0.01 to 0.49 µM throughout.
For `C[C@H]1[C@@H](O[C@@H](C#N)c2ccc(Br)cc2)O[C@@H]2O[C@@]3(C)CC[C@H]4[C@H](C)CC[C@@H]1[C@@]24OO3`, the IC50 with L1210, with HT-29, with P388 and in the assay with A549 [3] was 0.01 to 0.49 µM throughout.
Consider `CC(C)=CCC[C@H](C)[C@H]1C[C@@H]2OO[C@H]1C=C2C`, for which the IC50 with A549 [4], with SK-OV-3, with HCT-15, in the assay with XF498 and in the assay with SK-MEL-2 was 0.1 to 0.87 µg/mL (≈ 0.423 to 3.68 µM) in each case.
On to `C=C1C(=O)O[C@H]2[C@H]1[C@@H](OC(=O)C(C)C)CC(C)=C1C[C@@H]3O[C@]3(C)[C@@H]12`, for which the IC50 in the assay with HeLa [5], in the assay on A549 [6] and in the assay on U-937 was 16 to 43.5 µg/mL (≈ 48.1 to 131 µM) throughout.
For `C=C1C(=O)O[C@@H]2/C=C(\C)[C@@H](OC(=O)[C@@H](C)CC)C/C=C(\C)CC[C@@H]12`, the IC50 with HeLa [5], in the assay with A549 [6] and in the assay on U-937 was 16 to 43.5 µg/mL (≈ 48.1 to 131 µM) in each case.
For the compound `C=C1C(=O)O[C@H]2[C@H]1CC[C@@](C)(O)[C@]13O[C@H]1[C@H](Cl)[C@@](C)(O)[C@H]23`, the IC50 fell in the range of 33 to 75 µg/mL (≈ 105 to 238 µM) in the assay with A2780; 33 to 75 µg/mL (≈ 105 to 238 µM) in the assay on A-431; 3.3 to 6 µM with Bel-7402; 33 to 75 µg/mL (≈ 105 to 238 µM) in the assay on MCF7 [7]; 3.3 to 6 µM with A549 [8]; 33 to 75 µg/mL (≈ 105 to 238 µM) in the assay with HeLa [9].
Regarding `C=C1C(=O)O[C@H]2[C@H]1[C@@H](OC(=O)/C(C)=C\C)CC(C)=C1C[C@@H]3O[C@]3(C)[C@@H]12`, the IC50 in the assay on HeLa [5], in the assay on A549 [6] and in the assay on U-937 was 16 to 43.5 µg/mL (≈ 46.5 to 126 µM) throughout.
Turning to `CC1=CCC2[C@@H]1[C@H]1OC(=O)[C@@H](C)[C@@H]1C[C@]1(C)O[C@H]21` (stereo not given in full), the IC50 (in the assay with HepG2; in the assay on SH-SY5Y; in [10]) was 229 to 233 µM throughout.
Consider `CC(C)=CCC[C@H](C)[C@H]1C[C@H]2OO[C@@H]1C=C2C`, for which the IC50 with A549 [4], in the assay with SK-OV-3, in the assay on HCT-15, with XF498 and in the assay on SK-MEL-2 was 0.2 to 5.43 µg/mL (≈ 0.846 to 23 µM) each time.
On to `CC#CC#CCc1ccccc1`, for which the IC50 with HL-60 lay within 1.1 to 40.7 µg/mL (≈ 7.13 to 264 µM).
For `C[C@H]1[C@@H](CCNC(=O)CC[C@H](NC(=O)CC[C@H]2O[C@@H]3O[C@@]4(C)CC[C@H]5[C@H](C)CC[C@@H]([C@H]2C)[C@@]35OO4)C(=O)NCC[C@H]2O[C@@H]3O[C@@]4(C)CC[C@H]5[C@H](C)CC[C@@H]([C@H]2C)[C@@]35OO4)O[C@@H]2O[C@@]3(C)CC[C@H]4[C@H](C)CC[C@@H]1[C@@]24OO3`, the IC50 in assay [11] was found to be 6 µM.
Consider `COc1cc2ccc(=O)oc2c(OC)c1O`, for which the IC50 in the assay on A549 [4], in the assay on SK-OV-3, with HCT-15, in the assay with XF498 and in the assay on SK-MEL-2 was 0.4 to 26.8 µg/mL (≈ 1.8 to 121 µM) each time.
As to `C=C1C(=O)O[C@H](C2=C(C)[C@@H](OC)CC2=O)[C@H]1CCC(C)=O`, the IC50 with A2780, with A-431, with MCF7 [7] and in the assay with HeLa [9] was 33 to 75 µg/mL (≈ 113 to 257 µM) throughout.
On to `C=C1C(=O)O[C@H]2[C@H]1[C@@H](OC(C)=O)CC(=C)[C@]1(O)C[C@H](Cl)[C@@](C)(O)[C@H]21`, for which the IC50 in the assay on Bel-7402 and with A549 [8] was 3.3 to 6 µM each time.
For `C=C1C(=O)O[C@H]2[C@H]1[C@@H](OC(C)=O)C[C@@](C)(O)[C@@]13O[C@@H]1[C@@H](Cl)[C@](C)(O)[C@H]23`, the 50% inhibitory concentration (IC50) with Bel-7402 and with A549 [8] was 3.3 to 6 µM each time.

The record behind these values is ChEMBL document CHEMBL4342436, “Artemisia: a promising plant for the treatment of cancer” (Bioorg Med Chem, 2020).
